Experiments:
Assay in all cases: radiometric filter-binding kinase assay, Kinase HotSpot
Details in all cases: compound 0.5 µM; ATP 10 µM
GRK7 (human) = GRK7 (human) (UniProt Q8WTQ7)
KIT (human) = KIT (human) (UniProt P10721)
FYN (human) = FYN (human) (UniProt P06241)
PDGFRA (human) = PDGFRA (human) (UniProt P16234)
AXL (human) = AXL (human) (UniProt P30530)
TBK1 (human) = TBK1 (human) (UniProt Q9UHD2)
PRKACA (human) = PRKACA (human) (UniProt P17612)
RET (human) = RET (human) (UniProt P07949)
CHEK1 (human) = CHEK1 (human) (UniProt O14757)
STK10 (human) = STK10 (human) (UniProt O94804)
CSNK2A1 (human) = CSNK2A1 (human) (UniProt P68400)
PRKD1 (human) = PRKD1 (human) (UniProt Q15139)
PLK3 (human) = PLK3 (human) (UniProt Q9H4B4)
GRK4 (human) = GRK4 (human) (UniProt P32298)
ERBB4 (human) = ERBB4 (human) (UniProt Q15303)
GRK5 (human) = GRK5 (human) (UniProt P34947)
MAPK1 (human) = MAPK1 (human) (UniProt P28482)
PAK1 (human) = PAK1 (human) (UniProt Q13153)
CAMK2B (human) = CAMK2B (human) (UniProt Q13554)
MAPK13 (human) = MAPK13 (human) (UniProt O15264)
MAPK11 (human) = MAPK11 (human) (UniProt Q15759)
PRKD2 (human) = PRKD2 (human) (UniProt Q9BZL6)
ALK (human) = ALK (human) (UniProt Q9UM73)
CDK1 CCNB1 (human) = CDK1 CCNB1 (human) (UniProt P06493+P14635)
WNK3 (human) = WNK3 (human) (UniProt Q9BYP7)
FLT3 (human) = FLT3 (human) (UniProt P36888)
FLT1 (human) = FLT1 (human) (UniProt P17948)
WEE1 (human) = WEE1 (human) (UniProt P30291)
MAPKAPK3 (human) = MAPKAPK3 (human) (UniProt Q16644)
CDK9 CCNT1 (human) = CDK9 CCNT1 (human) (UniProt P50750+O60563)
TGFBR2 (human) = TGFBR2 (human) (UniProt P37173)
RPS6KA1 KD1 KD2 (human) = RPS6KA1 KD1 KD2 (human) (UniProt Q15418)
CDK6 CCND3 (human) = CDK6 CCND3 (human) (UniProt P30281+Q00534)
RPS6KA2 KD1 KD2 (human) = RPS6KA2 KD1 KD2 (human) (UniProt Q15349)
MAP4K5 (human) = MAP4K5 (human) (UniProt Q9Y4K4)
CSNK1A1 (human) = CSNK1A1 (human) (UniProt P48729)
CDK5 CDK5R1 p25 (human) = CDK5 CDK5R1 p25 (human) (UniProt Q00535+Q15078)
RAF1 (human) = RAF1 (human) (UniProt P04049)
EPHB4 (human) = EPHB4 (human) (UniProt P54760)
SRC (human) = SRC (human) (UniProt P12931)
FRK (human) = FRK (human) (UniProt P42685)

CHEK1 (human), sequence (O14757 whole entry, looked up): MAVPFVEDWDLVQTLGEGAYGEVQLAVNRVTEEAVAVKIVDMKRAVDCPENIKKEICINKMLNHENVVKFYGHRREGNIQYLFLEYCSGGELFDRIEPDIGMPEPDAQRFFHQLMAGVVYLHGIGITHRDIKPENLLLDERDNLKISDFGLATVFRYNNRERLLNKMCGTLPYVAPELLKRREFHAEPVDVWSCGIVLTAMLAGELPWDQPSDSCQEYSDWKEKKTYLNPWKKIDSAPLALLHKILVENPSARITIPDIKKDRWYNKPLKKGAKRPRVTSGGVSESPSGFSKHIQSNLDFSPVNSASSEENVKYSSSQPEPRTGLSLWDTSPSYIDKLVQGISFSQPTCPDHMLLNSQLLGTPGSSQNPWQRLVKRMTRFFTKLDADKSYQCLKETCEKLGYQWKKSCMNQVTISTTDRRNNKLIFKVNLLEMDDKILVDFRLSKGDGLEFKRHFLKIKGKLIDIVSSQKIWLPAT
KIT (human), sequence (P10721 whole entry, looked up): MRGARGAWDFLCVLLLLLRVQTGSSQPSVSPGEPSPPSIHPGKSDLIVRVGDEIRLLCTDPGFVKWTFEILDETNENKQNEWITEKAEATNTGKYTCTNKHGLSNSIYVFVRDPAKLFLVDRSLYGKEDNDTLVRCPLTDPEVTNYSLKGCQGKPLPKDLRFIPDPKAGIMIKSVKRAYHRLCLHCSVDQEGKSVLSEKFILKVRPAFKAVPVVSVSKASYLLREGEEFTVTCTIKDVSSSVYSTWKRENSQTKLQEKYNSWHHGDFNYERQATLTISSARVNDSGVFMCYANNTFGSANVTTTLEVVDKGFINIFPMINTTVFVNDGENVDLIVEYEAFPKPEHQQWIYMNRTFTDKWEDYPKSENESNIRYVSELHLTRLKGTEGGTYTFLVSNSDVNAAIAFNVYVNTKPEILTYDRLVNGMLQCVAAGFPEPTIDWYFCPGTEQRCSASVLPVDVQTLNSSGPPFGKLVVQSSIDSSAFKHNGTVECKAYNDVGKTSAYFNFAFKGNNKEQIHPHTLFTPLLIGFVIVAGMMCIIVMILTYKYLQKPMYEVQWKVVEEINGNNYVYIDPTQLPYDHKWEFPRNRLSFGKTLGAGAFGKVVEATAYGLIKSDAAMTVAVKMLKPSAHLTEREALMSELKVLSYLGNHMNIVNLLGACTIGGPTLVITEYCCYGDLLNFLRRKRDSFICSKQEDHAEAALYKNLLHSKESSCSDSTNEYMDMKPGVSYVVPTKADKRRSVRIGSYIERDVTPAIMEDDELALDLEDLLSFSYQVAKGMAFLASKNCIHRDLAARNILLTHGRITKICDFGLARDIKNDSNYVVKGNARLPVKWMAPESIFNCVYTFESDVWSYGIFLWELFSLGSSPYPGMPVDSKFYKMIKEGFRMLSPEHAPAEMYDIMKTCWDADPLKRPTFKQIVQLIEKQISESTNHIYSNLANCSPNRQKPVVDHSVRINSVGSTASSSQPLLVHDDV
RAF1 (human), sequence (P04049 whole entry, looked up): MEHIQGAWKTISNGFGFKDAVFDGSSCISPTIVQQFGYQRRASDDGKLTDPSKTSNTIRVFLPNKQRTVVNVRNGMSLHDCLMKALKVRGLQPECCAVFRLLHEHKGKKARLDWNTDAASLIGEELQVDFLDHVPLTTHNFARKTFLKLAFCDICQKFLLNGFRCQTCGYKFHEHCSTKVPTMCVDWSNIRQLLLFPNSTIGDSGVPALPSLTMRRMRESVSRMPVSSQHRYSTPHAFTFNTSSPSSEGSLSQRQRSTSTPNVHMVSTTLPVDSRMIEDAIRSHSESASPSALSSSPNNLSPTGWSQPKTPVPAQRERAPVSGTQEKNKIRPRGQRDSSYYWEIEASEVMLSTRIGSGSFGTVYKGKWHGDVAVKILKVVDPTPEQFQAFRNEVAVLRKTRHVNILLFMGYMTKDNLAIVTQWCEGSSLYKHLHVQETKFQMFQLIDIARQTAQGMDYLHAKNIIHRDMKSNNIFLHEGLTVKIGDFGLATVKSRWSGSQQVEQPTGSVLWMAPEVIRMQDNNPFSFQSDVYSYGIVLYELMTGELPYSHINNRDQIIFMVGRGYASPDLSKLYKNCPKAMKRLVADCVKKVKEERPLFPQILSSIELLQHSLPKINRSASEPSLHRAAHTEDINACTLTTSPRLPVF
MAPK1 (human), sequence (P28482 whole entry, looked up): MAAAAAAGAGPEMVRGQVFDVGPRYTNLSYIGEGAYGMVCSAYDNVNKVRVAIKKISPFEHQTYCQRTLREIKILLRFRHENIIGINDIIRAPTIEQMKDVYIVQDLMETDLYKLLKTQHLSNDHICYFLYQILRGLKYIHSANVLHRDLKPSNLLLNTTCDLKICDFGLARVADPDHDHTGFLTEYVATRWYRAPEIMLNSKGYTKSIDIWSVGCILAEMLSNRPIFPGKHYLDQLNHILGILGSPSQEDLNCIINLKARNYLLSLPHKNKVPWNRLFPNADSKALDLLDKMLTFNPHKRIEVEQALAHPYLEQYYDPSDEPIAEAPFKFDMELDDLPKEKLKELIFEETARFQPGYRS
GRK5 (human), sequence (P34947 whole entry, looked up): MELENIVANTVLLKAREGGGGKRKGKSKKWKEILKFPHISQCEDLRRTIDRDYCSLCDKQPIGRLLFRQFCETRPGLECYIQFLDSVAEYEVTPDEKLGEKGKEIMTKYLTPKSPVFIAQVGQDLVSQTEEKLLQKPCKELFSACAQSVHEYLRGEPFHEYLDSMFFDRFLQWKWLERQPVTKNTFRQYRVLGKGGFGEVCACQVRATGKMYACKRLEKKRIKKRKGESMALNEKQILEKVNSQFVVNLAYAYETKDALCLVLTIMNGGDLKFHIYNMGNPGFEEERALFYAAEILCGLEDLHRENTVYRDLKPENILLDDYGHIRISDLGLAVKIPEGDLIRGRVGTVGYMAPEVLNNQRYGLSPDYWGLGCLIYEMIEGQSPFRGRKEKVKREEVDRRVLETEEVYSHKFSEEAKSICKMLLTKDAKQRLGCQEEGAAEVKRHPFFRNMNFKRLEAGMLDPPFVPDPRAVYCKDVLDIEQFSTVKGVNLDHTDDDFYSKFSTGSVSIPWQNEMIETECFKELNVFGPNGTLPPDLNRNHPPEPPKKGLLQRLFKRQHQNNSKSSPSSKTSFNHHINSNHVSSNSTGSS
CDK1 CCNB1 (human), sequence (P06493 whole entry, looked up): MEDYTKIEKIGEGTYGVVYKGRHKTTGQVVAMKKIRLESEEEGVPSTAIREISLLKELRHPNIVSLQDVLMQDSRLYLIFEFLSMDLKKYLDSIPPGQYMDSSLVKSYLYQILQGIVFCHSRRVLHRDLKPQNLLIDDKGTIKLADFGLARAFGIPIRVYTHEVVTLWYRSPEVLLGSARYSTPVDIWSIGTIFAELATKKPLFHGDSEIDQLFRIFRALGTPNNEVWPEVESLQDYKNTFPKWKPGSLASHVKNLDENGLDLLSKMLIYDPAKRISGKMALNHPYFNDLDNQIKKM
CDK1 CCNB1 (human), sequence (P14635 whole entry, looked up): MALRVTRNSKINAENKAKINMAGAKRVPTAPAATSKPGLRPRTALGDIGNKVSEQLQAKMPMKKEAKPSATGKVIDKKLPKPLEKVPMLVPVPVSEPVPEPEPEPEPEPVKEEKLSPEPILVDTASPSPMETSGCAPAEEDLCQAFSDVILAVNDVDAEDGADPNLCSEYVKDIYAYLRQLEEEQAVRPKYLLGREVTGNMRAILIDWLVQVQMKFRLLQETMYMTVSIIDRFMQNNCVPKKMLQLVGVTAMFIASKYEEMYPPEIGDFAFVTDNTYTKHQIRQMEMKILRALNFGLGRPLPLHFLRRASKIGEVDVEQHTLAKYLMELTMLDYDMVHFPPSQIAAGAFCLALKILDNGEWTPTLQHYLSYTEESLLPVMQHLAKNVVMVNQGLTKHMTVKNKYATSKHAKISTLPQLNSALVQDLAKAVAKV
CDK6 CCND3 (human), sequence (P30281 whole entry, looked up): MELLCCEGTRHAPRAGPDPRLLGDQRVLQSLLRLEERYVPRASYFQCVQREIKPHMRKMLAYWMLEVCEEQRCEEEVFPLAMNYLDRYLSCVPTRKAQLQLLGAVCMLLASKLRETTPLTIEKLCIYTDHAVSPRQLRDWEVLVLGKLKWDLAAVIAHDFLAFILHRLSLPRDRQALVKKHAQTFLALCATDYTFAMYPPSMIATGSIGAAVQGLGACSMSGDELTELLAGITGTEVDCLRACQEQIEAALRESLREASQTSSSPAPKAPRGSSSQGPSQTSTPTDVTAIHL
CDK6 CCND3 (human), sequence (Q00534 whole entry, looked up): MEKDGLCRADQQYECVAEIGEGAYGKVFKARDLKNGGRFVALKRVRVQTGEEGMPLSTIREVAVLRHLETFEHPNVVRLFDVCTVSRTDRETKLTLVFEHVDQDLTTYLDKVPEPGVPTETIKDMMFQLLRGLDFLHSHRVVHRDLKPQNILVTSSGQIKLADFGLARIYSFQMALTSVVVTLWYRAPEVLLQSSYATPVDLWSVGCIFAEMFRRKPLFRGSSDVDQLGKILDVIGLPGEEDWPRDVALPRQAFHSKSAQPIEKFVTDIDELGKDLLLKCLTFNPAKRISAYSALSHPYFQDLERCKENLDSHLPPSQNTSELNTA
MAPK13 (human), sequence (O15264 whole entry, looked up): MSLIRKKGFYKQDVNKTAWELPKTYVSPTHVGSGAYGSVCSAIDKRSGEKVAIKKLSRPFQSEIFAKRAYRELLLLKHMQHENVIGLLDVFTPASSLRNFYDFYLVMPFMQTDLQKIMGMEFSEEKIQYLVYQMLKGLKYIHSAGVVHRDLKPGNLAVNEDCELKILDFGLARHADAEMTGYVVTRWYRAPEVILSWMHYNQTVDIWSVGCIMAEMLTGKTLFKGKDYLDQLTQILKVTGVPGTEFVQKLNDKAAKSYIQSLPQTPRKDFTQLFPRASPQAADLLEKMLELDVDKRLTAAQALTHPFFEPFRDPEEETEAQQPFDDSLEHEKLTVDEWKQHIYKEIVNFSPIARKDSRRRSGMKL

| Compound | residual activity (GRK7 (human)) | residual activity (KIT (human)) | residual activity (FYN (human)) | residual activity (PDGFRA (human)) | residual activity (AXL (human)) | residual activity (PRKACA (human)) | residual activity (RET (human)) | residual activity (CHEK1 (human)) | residual activity (STK10 (human)) | residual activity (CSNK2A1 (human)) | residual activity (PRKD1 (human)) | residual activity (PLK3 (human)) | residual activity (GRK4 (human)) | residual activity (ERBB4 (human)) | residual activity (MAPK1 (human)) | residual activity (PAK1 (human)) | residual activity (CAMK2B (human)) | residual activity (MAPK13 (human)) | residual activity (MAPK11 (human)) | residual activity (PRKD2 (human)) | other results |
| --- | --- | --- | --- | --- | --- | --- | --- | --- | --- | --- | --- | --- | --- | --- | --- | --- | --- | --- | --- | --- | --- |
| CNC(=O)c1cc(Oc2ccc(NC(=O)Nc3ccc(Cl)c(C(F)(F)F)c3)cc2)ccn1 | 97.3% | 53.3% | 91.6% | 7.77% | 105% | 92.6% | 1.78% | 173% | 72.4% | 108% | 99.7% | 99.3% | 103% | 94.8% | 101% | 108% | 96.7% | 97.5% | 46.9% | 96.2% | residual activity (TBK1 (human)): 98.6%; residual activity (GRK5 (human)): 97.8%; residual activity (ALK (human)): 97.3%; residual activity (CDK1 CCNB1 (human)): 98.5%; residual activity (WNK3 (human)): 99.2%; residual activity (FLT3 (human)): 9.22%; residual activity (FLT1 (human)): 50.5%; residual activity (WEE1 (human)): 103%; residual activity (MAPKAPK3 (human)): 100%; residual activity (CDK9 CCNT1 (human)): 98.3%; residual activity (TGFBR2 (human)): 99.9%; residual activity (RPS6KA1 KD1 KD2 (human)): 101%; residual activity (CDK6 CCND3 (human)): 104%; residual activity (RPS6KA2 KD1 KD2 (human)): 93.3%; residual activity (MAP4K5 (human)): 57%; residual activity (CSNK1A1 (human)): 97.8%; residual activity (CDK5 CDK5R1 p25 (human)): 97.2% |
| CC(=O)c1ccc(N2CCOCC2)cc1O | 100% | 102% | 103% | 94.7% | 96.3% | 102% | 103% | 103% | 101% | 101% | 102% | 98.1% | 106% | 107% | 97.6% | 93.7% | 105% | 104% | 99.8% | 97.4% | residual activity (RAF1 (human)): 96.2%; residual activity (TBK1 (human)): 99.1%; residual activity (EPHB4 (human)): 97.6%; residual activity (GRK5 (human)): 108%; residual activity (SRC (human)): 104%; residual activity (ALK (human)): 106%; residual activity (CDK1 CCNB1 (human)): 86.8%; residual activity (FLT3 (human)): 102%; residual activity (FLT1 (human)): 97.1%; residual activity (WEE1 (human)): 97.5%; residual activity (MAPKAPK3 (human)): 105%; residual activity (CDK9 CCNT1 (human)): 100%; residual activity (TGFBR2 (human)): 132%; residual activity (RPS6KA1 KD1 KD2 (human)): 92.4%; residual activity (FRK (human)): 91.6%; residual activity (CDK6 CCND3 (human)): 97.4%; residual activity (RPS6KA2 KD1 KD2 (human)): 98.6%; residual activity (MAP4K5 (human)): 102%; residual activity (CSNK1A1 (human)): 110%; residual activity (CDK5 CDK5R1 p25 (human)): 99.7% |
| c1ccc(-c2n[nH]cc2-c2ccnc3ccccc23)nc1 | 102% | 93.5% | 110% | 98.1% | 101% | 107% | 93.8% | 99.7% | 90.1% | 96.3% | 63% | 91.7% | 94.3% | 85.7% | 108% | 96.3% | 97.2% | 110% | 106% | 66.9% | residual activity (RAF1 (human)): 89.5%; residual activity (TBK1 (human)): 92.6%; residual activity (EPHB4 (human)): 89.1%; residual activity (GRK5 (human)): 109%; residual activity (SRC (human)): 94.7%; residual activity (ALK (human)): 111%; residual activity (CDK1 CCNB1 (human)): 106%; residual activity (FLT3 (human)): 91.2%; residual activity (FLT1 (human)): 81.4%; residual activity (WEE1 (human)): 91.1%; residual activity (MAPKAPK3 (human)): 92.9%; residual activity (CDK9 CCNT1 (human)): 80%; residual activity (TGFBR2 (human)): 109%; residual activity (RPS6KA1 KD1 KD2 (human)): 88.1%; residual activity (FRK (human)): 92.8%; residual activity (CDK6 CCND3 (human)): 98.2%; residual activity (RPS6KA2 KD1 KD2 (human)): 96.3%; residual activity (MAP4K5 (human)): 87.4%; residual activity (CSNK1A1 (human)): 74.6%; residual activity (CDK5 CDK5R1 p25 (human)): 97.2% |
| CCN(CC)CCNC(=O)c1c(C)[nH]c(/C=C2\C(=O)Nc3ccc(F)cc32)c1C | 71.3% | 8.74% | 71.3% | 10.9% | 27.4% | 89.1% | 3.43% | 29.2% | 31.2% | 121% | 20% | 96.5% | 75.8% | 94.8% | 98.5% | 118% | 46.7% | 92.4% | 99.9% | 21.1% | residual activity (RAF1 (human)): 110%; residual activity (ALK (human)): 16.6%; residual activity (CDK1 CCNB1 (human)): 103%; residual activity (WNK3 (human)): 94.3%; residual activity (FLT3 (human)): 2.71%; residual activity (FLT1 (human)): 58.7%; residual activity (WEE1 (human)): 91.8%; residual activity (MAPKAPK3 (human)): 102%; residual activity (CDK9 CCNT1 (human)): 88.7%; residual activity (TGFBR2 (human)): 92.5%; residual activity (RPS6KA1 KD1 KD2 (human)): 28%; residual activity (FRK (human)): 84.4%; residual activity (CDK6 CCND3 (human)): 59.7%; residual activity (RPS6KA2 KD1 KD2 (human)): 17.3%; residual activity (MAP4K5 (human)): 4.06% |
| Cc1[nH]c(/C=C2\C(=O)Nc3ccc(S(=O)(=O)N(C)c4cccc(Cl)c4)cc32)c(C)c1C(=O)N1CCN(C)CC1 | 86.7% | 51.3% | 67.1% | 72.8% | 66.5% | 100% | 23% | 89.7% | 9.05% | 78.8% | 61.8% | 95% | 103% | 105% | 85.1% | 87.7% | 89.8% | 100% | 103% | 58.3% | residual activity (RAF1 (human)): 114%; residual activity (TBK1 (human)): 60.4%; residual activity (EPHB4 (human)): 95.4%; residual activity (GRK5 (human)): 98.9%; residual activity (SRC (human)): 53.3%; residual activity (ALK (human)): 77.7%; residual activity (CDK1 CCNB1 (human)): 101%; residual activity (FLT3 (human)): 26.5%; residual activity (FLT1 (human)): 74.7%; residual activity (WEE1 (human)): 81.8%; residual activity (MAPKAPK3 (human)): 96.9%; residual activity (CDK9 CCNT1 (human)): 91%; residual activity (TGFBR2 (human)): 127%; residual activity (RPS6KA1 KD1 KD2 (human)): 54.4%; residual activity (FRK (human)): 95.4%; residual activity (CDK6 CCND3 (human)): 72.8%; residual activity (RPS6KA2 KD1 KD2 (human)): 75.4%; residual activity (MAP4K5 (human)): 5.06%; residual activity (CSNK1A1 (human)): 79.2%; residual activity (CDK5 CDK5R1 p25 (human)): 82% |

— the kinase profiling compilation of Christmann-Franck et al. (2016)
